The test system of one assay is trained cyclists. The experiment in a line: Onset of blood lactate accumulation (OBLA) test, incremental cycling exercise. Type of assay: in vivo. How it is done:
Two tests were performed to determine whether quercetin lowers blood lactate or improves maximal lactate steady state: a VO2PEAK test and an onset of blood lactate accumulation [OBLA] test. These tests were performed in a laboratory maintained at 20-25° C. and 35-40% relative humidity with the participants exercising on a Velotron bicycle trainer (Velotron Pro, RacerMate Inc, Seattle, Wash.) calibrated according to manufacturer's recommendations. VO2PEAK was determined using an incremental multistage cycling protocol: following a 10-min warm-up at 100 W, participants cycled at 150 W for five minutes then power output was increased by 50 W every three minutes until 250 W after which power output was increased by 25 W every minute until volitional exhaustion. Oxygen consumption (VO2) and carbon dioxide production (VCO2) were computed from expiratory gases collected and analyzed with a MOXUS metabolic cart (AEI Technologies, Pittsburgh, Pa.). OBLA was determined on a second occasion, separated from the measurement of VO2PEAK by at least seven days. The participants exercised for 3.5 minute stages at 55, 60, 65, 70, 75, 80, 85, and 90% VO2PEAK, and 3-mL blood samples were collected during the final 30 sec of each stage for measuring blood lactate concentration, OBLA was determined using curve fitting techniques and expressed as a percentage of VO2PEAK. OBLA was determined before and after 28 days of quercetin supplementation (1000 mg/d) contained in a 2% carbohydrate beverage with electrolytes and vitamins C and B3.

A further assay deals with C2C12 cells. Kind of assay: Muscle cell assay: lactate concentration in C2C12 cells after electrical pulse stimulation. It is filed as cell-based, Mouse. How it is done:
Mouse C2C12 myoblasts are purchased from American Type Culture Collection (ATCC; Manassas, Va.) and grown to 90% confluence in high glucose Dubecco's Modified Eagle media (DMEM) with 10% fetal bovine serum (FBS). Myoblasts from the purchased lot are grown in T75 flasks and subcultured >5 times prior to plating in collagen coated six-well plates for experimentation. To induce myotube differentiation FBS containing media is replaced with 2% horse serum containing media or serum free media for 5-7 days. Myoblasts are grown and myotubes are maintained with or without antibiotics in a 37° C., 5% CO2 incubator. Electrical pulsing is applied to the myotubes using a C-Pace EP Cell Culture Stimulator (IonOptix; Milton, Mass.). […] Immediately prior to stimulation, day old media is removed and replaced with 5 ml of fresh differentiation media. For incubation experiments, differentiated myotubes are pre-treated with quercetin and/or other compounds. Approximately 18 hours prior and again immediately before electrical pulse stimulation, DMEM containing 2% horse serum or serum free media is replaced with the same media containing quercetin or other test compounds at varying concentrations. Samples from media from resting and contracted cells (with and without compound incubation) is analyzed enzymatically for lactate with a modified method of Lowry and Passonneau (A Flexible System of Enzymatic Analysis, pages 194-199, Academic Press, INC. 1972 hereby incorporated by reference in its entirety.) The effect of quercetin on lactate concentration of muscle cells subjected to electrical pulse stimulation as generally described in Example 1 and Example 2 was studied. […] Media was changed every 24 hours. After 48 hours, growth media was replaced with AIM 5 differentiation media which was also changed every 24 hours. […] Lactate concentrations were measured with the Enzychrom L-Lactate Kit as follows. […] The optical density (OD0) was read for time “zero” at 565 nm and OD20 after a […] incubation at room temperature.

Take `O=c1c(O)c(-c2ccc(O)c(O)c2)oc2cc(O)cc(O)c12` [quercetin]: in the assay on trained cyclists (after quercetin administration vs before, FIG. 1), the “improvement of the % VO2 Peak where the cyclist achieved a blood lactate concentration of 4 mmol” value is given as “about 3%”. Further, in the assay with trained cyclists (after quercetin administration, about 71% before, FIG. 1), the “% VO2 Peak to achieve a 4 mmol blood lactate concentration” value is on record as “about 73%”. Further, in the assay on trained cyclists (endurance cyclists, after 28 days of quercetin administration (1000 mg/d), 244 W before), the “cycling power output required to elicit a 4 mmol blood lactate” value was found to be 250 W. Also, the “increase in cycling power output required to elicit a 4 mmol blood lactate” value in the assay on trained cyclists (endurance cyclists, before vs after 28 days of quercetin administration (1000 mg/d), FIG. 1) is given as 6 watts (W). In addition, the “day 5 lactate concentration post stimulus” value was “lower day 5 lactate concentration post stimulus” with C2C12 cells (plate C (primed days 3 and 4, quercetin days 3, 4, 5) vs plate A without quercetin, 60 minutes low intensity stimulation (10V/0.5 hz/24 ms), FIG. 5); “lower day 5 lactate concentration post stimulus” in the assay with C2C12 cells (plate D (primed days 3 and 4, quercetin days 3, 4, 5) vs plate B without quercetin, 60 minutes high intensity stimulation (10V/4 hz/2 ms), FIG. 6); “lower day 5 lactate concentration post stimulus” in the assay with C2C12 cells (plate E (no priming, quercetin day 5 only) vs plate F without quercetin, 60 minutes high intensity stimulation (10V/4 hz/2 ms), FIG. 7).

(Values after patent US10105344B2, “Methods of reducing blood lactate concentration” (Stokely-Van Camp, Inc., priority 2010, dated 2018).)
